Experimental data from patent publication US7026333B1, “Retroviral protease inhibitors” (G. D. Searle & Co., priority 1999, dated 2006).

Columns and labels:
CEM cells = experiment: CEM cell assay, intrinsic toxicity of test compound without virus (MTT); assay type: cell-based; settings: 7 days, concentration reducing cellular viability by 50%
Procedure: (§1) The effectiveness of the compounds tested in Part A was also determined in a CEM cell assay. The HIV inhibition assay method of acutely infected cells is an automated tetrazolium based colorimetric assay essentially that reported by Pauwles et al, J. Virol. Methods 20, 309–321 (1988). Assays were performed in 96-well tissue culture plates. CEM cells, a CD4 cell line, were grown in RPMI-1640 medium (Gibco) supplemented with a 10% fetal calf serum and were then treated with polybrene ([…]). An 80 μL volume of medium containing 1×10^4 cells was dispensed into each well of the tissue culture plate. To each well was added a 100 μL volume of test compound dissolved in tissue culture medium (or medium without test compound as a control) to achieve the desired final concentration and the cells were incubated at 37° C. for 1 hour. A frozen culture of HIV-1 was diluted in culture medium to a concentration of 5×10^4 TCID50 per mL (TCID50=the dose of virus that infects 50% of cells in tissue culture), and a 20 μL volume of the virus sample (containing 1000 TCID50 of virus) was added to wells containing test compound and to wells containing only medium (infected control cells). Several wells received culture medium without virus (uninfected control cells). Likewise, the intrinsic toxicity of the test compound was determined by adding medium without virus to several wells containing test compound. In summary, the tissue culture plates contained the following experiments:
In experiments 2 and 4, the final concentrations of test compounds were 1, 10, 100 and 500 μg/mL. Either azidothymidine (AZT) or dideoxyinosine (ddI) was included as a positive drug control. […] DMSO was added to all control wells at an appropriate concentration.
Following the addition of virus, cells were incubated at 37° C. in a humidified, 5% CO2 atmosphere for 7 days. Test compounds could be added on days 0, 2 and 5 if desired. On day 7, post-infection, the cells in each well were resuspended and a 100 μL sample of each cell suspension was removed for assay. A 20μL volume of a 5 mg/mL solution of 3-(4,5-dimethylthiazol-2-yl)-2,5-diphenyltetrazolium bromide (MTT) was added to each 100 μL cell suspension, and the cells were incubated for 4 hours at […] in a 5% CO2 environment. […] To each sample was added […] of 10% sodium dodecylsulfate in 0.01 N HCl to lyse the cells, and samples were incubated overnight. The absorbance at 590 nm was determined for each sample using a Molecular Devices microplate reader. Absorbance values for each set of wells is compared to assess viral control infection, uninfected control cell response as well as test compound by cytotoxicity and antiviral efficacy.
The calculated EC50 (effective concentration 50%, i.e., the concentration at which the inhibitor compound reduces cytopathicity by 50%) and TD50 (toxic dose 50%, i.e., the concentration at which the inhibitor compound reduces cellular viability by 50%) values for these compounds are also shown in Table 1.

HIV protease = target: T1, HIV protease (Human immunodeficiency virus type 1 group M subtype B, UniProt P04585); experiment: Enzyme assay (HIV protease, fluorogenic substrate 2-aminobenzoyl-Ile-Nle-Phe(p-NO2)-Gln-ArgNH2); assay type: biochemical; settings: HIV protease 12.3 nanomolar, substrate 80 μM, pH 6.4; read-out: Enzyme Inhibition (IC50)
T1 construct: HIV protease is diluted in the assay buffer to a final enzyme concentration of 12.3 nanomolar, based on a molecular weight of 10,780
Procedure: The calculated IC50 (inhibiting concentration 50%, i.e., the concentrations at which the inhibitor compound reduces enzyme activity by 50%) values are shown in Table 1. The enzyme method is described below. The substrate is 2-aminobenzoyl-Ile-Nle-Phe(p-NO2)-Gln-ArgNH2. The positive control is MVT-101 (Miller, M. et al, Science, 246, 1149 (1989)] The assay conditions are as follows:
Assay buffer: 20 mM sodium phosphate, pH 6.4
• 20% glycerol • 1 mM EDTA • 1 mM DTT • 0.1% CHAPS
The above described substrate is dissolved in DMSO, then diluted 10 fold in assay buffer. Final substrate concentration in the assay is 80 μM.
HIV protease is diluted in the assay buffer to a final enzyme concentration of 12.3 nanomolar, based on a molecular weight of 10,780.
The final concentration of DMSO is 14% and the final concentration of glycerol is 18%. The test compound is dissolved in DMSO and diluted in DMSO to 10× the test concentration; 10 μL of the enzyme preparation is added, the materials mixed and then the mixture is incubated at ambient temperature for 15 minutes. The enzyme reaction is initiated by the addition of 40 μL of substrate. The increase in fluorescence is monitored at 4 time points (0, 8, 16 and 24 minutes) at ambient temperature. Each assay is carried out in duplicate wells.

HIV-1 = experiment: CEM cell assay, HIV inhibition in acutely infected cells (MTT); assay type: cell-based; settings: Human immunodeficiency virus 1, CCRF-CEM, 168 h; CEM cells acutely infected with HIV-1, 7 days; concentration reducing cytopathicity by 50%; read-out: Antiviral Activity in Cell Culture (EC50)
Procedure: as §1, with “A frozen culture of HIV-1 was diluted in culture medium to a concentration of 5×10^4 TCID50 per mL (TCID50=the dose of virus that infects 50% of cells in tissue culture), and a 20 μL volume of the virus sample (containing 1000 TCID50 of virus) was added to wells containing test compound and to wells containing only medium (infected control cells). Several wells received culture medium without virus (uninfected control cells).” left out, “In summary, the tissue culture plates contained the following experiments:” left out
Following the addition of virus, cells were incubated at 37° C. in a humidified, 5% CO2 atmosphere for 7 days. […] The absorbance at 590 nm was determined for each sample using a Molecular Devices microplate reader. Absorbance values for each set of wells is compared to assess viral control infection, uninfected control cell response as well as test compound by cytotoxicity and antiviral efficacy. […]

For `C[C@@H](C(=O)N[C@@H](Cc1ccccc1)[C@H](O)CN1C[C@H]2CCCC[C@H]2C[C@H]1C(=O)NC(C)(C)C)C(C)(C)C(=O)O`, the “Cell Toxicity (TD50)” value (CEM cells) was 50,000 nM.
`C[C@H](CS(C)(=O)=O)C(=O)N[C@@H](Cc1ccccc1)[C@H](O)CN1C[C@H]2CCCC[C@H]2C[C@H]1C(=O)NC(C)(C)C` was tested, and the “Cell Toxicity (TD50)” value (CEM cells) was 58,000 nM.
`COc1ccc(COC(=O)NC[C@@H](C)C(=O)N[C@@H](Cc2ccccc2)[C@H](O)CN2C[C@H]3CCCC[C@H]3C[C@H]2C(=O)NC(C)(C)C)cc1` was tested, and the “Cell Toxicity (TD50)” value (CEM cells) was 2,000 nM.
In the case of `CC(C)(C)NC(=O)[C@@H]1C[C@@H]2CCCC[C@@H]2CN1C[C@@H](O)[C@H](Cc1ccccc1)NC(=O)C[C@H](NC(=O)c1ccc2ccccc2n1)C(N)=O`, the “Cell Toxicity (TD50)” value (CEM cells) is reported as 5,000 nM.
With `C[C@@H](C(=O)N[C@@H](Cc1ccccc1)[C@H](O)CN1C[C@H]2CCCC[C@H]2C[C@H]1C(=O)NC(C)(C)C)C(C)(C)C(N)=O` the IC50 (HIV protease) was 9 nM, the EC50 (HIV-1) was 98 nM and the “Cell Toxicity (TD50)” value (CEM cells) was 59,000 nM.
